Experimental data: ChEMBL document CHEMBL1135944, “Identification of potent and selective oxytocin antagonists. Part 1: indole and benzofuran derivatives” (Bioorg Med Chem Lett, 2002)

Experiments:
[1] = The pharmacokinetic parameter, clearance was reported in dog after intravenous administration; assay type: ADME, organism-based, Canis lupus familiaris; conditions: in vivo
Oxytocin receptor [2] = target: T1, Oxytocin receptor (Homo sapiens, UniProt P30559); assay: Ability to displace [3H]oxytocin from human OT receptor (hOT)
T1 sequence (P30559 whole entry): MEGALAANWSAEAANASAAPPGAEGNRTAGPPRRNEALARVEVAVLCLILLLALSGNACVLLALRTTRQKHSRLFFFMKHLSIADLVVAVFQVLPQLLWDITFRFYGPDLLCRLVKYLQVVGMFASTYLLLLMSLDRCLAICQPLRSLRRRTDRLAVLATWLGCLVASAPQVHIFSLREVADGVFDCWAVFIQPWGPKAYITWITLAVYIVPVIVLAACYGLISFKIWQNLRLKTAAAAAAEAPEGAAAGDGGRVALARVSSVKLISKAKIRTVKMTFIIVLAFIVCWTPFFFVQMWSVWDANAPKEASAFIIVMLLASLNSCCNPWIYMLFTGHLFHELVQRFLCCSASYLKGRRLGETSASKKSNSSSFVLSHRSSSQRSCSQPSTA

[3] = Bioavailability in dog; assay type: ADME, organism-based, Canis lupus familiaris; conditions: in vivo
Oxytocin receptor [4] = target: T1, Oxytocin receptor; assay: Compound was tested for its ability to displace [3H]oxytocin from human Oxytocin receptor

SMILES	clearance [1] [mL/min/kg]	Ki (Oxytocin receptor [2]) [nM]	bioavailability [3] [%]	Ki (Oxytocin receptor [4]) [nM]
CN1CC(=O)N(CC(=O)NCc2cc3cc(C(=O)N4CCC(N5C(=O)OCc6ccccc65)CC4)ccc3o2)C1=O	20	3.16		
Cc1cc2cc(C(=O)N3CCC(N4C(=O)OCc5ccccc54)CC3)ccc2[nH]1		126		
CC(=O)N(C)CCn1ccc2cc(C(=O)N3CCC(N4C(=O)OCc5ccccc54)CC3)ccc21		63.1		
CC(=O)NCC(=O)NCc1cc2cc(C(=O)N3CCC(N4C(=O)OCc5ccccc54)CC3)ccc2o1	18	15.8	16	
CC(=O)N1CCCC(c2cc3cc(C(=O)N4CCC(N5C(=O)OCc6ccccc65)CC4)ccc3o2)C1 (centres undefined)		200		
CS(=O)(=O)N1CCN(Cc2cc3cc(C(=O)N4CCC(N5C(=O)OCc6ccccc65)CC4)ccc3o2)CC1	7	63.1	100	
CC1OC(=O)N(CC(=O)NCc2cc3cc(C(=O)N4CCC(N5C(=O)OCc6ccccc65)CC4)ccc3o2)C1=O (centres undefined)		25.1		
CS(=O)(=O)N1CCC[C@@H]1Cc1coc2cc(C(=O)N3CCC(N4C(=O)OCc5ccccc54)CC3)ccc12		200		
Cc1c[nH]c2ccc(C(=O)N3CCC(N4C(=O)OCc5ccccc54)CC3)cc12		794		
CN(CCn1ccc2cc(C(=O)N3CCC(N4C(=O)OCc5ccccc54)CC3)ccc21)S(C)(=O)=O		39.8		
O=C(c1ccc2occc2c1)N1CCC(N2C(=O)OCc3ccccc32)CC1		251		
O=C(c1ccc2ccoc2c1)N1CCC(N2C(=O)OCc3ccccc32)CC1		398		
O=C(CN1C(=O)CNC1=O)NCc1cc2cc(C(=O)N3CCC(N4C(=O)OCc5ccccc54)CC3)ccc2o1	17	6.31	8	
CC(=O)NCc1cc2cc(C(=O)N3CCC(N4C(=O)OCc5ccccc54)CC3)ccc2o1	8	63.1		
Cc1nc(-c2ccncc2)sc1C(=O)N1CCC(N2C(=O)OCc3ccccc32)CC1		126		
CN(CCCn1ccc2cc(C(=O)N3CCC(N4C(=O)OCc5ccccc54)CC3)ccc21)S(C)(=O)=O		158		
CS(=O)(=O)N1CCC[C@H]1Cn1ccc2cc(C(=O)N3CCC(N4C(=O)OCc5ccccc54)CC3)ccc21				126
CC(=O)N1CCC[C@@H]1Cn1ccc2cc(C(=O)N3CCC(N4C(=O)OCc5ccccc54)CC3)ccc21		158		
O=C(CN1CCCC1=O)NCc1cc2cc(C(=O)N3CCC(N4C(=O)OCc5ccccc54)CC3)ccc2o1	34	25.1		
Cn1ccc2cc(C(=O)N3CCC(N4C(=O)OCc5ccccc54)CC3)ccc21		126		
CC1(C)NC(=O)N(CC(=O)NCc2cc3cc(C(=O)N4CCC(N5C(=O)OCc6ccccc65)CC4)ccc3o2)C1=O	20	15.8		

SMILES	clearance [1] [mL/min/kg]	Ki (Oxytocin receptor [2]) [nM]	bioavailability [3] [%]	Ki (Oxytocin receptor [4]) [nM]
CC(=O)N1CCC[C@@H]1c1cc2cc(C(=O)N3CCC(N4C(=O)OCc5ccccc54)CC3)ccc2o1	31	25.1		
CC(=O)NCCn1ccc2cc(C(=O)N3CCC(N4C(=O)OCc5ccccc54)CC3)ccc21		398		
O=C(Cc1cccnc1)NCc1cc2cc(C(=O)N3CCC(N4C(=O)OCc5ccccc54)CC3)ccc2o1	49	25.1		
Cc1c(C)n(C[C@H]2CCCN2S(C)(=O)=O)c2ccc(C(=O)N3CCC(N4C(=O)OCc5ccccc54)CC3)cc12		398		
CS(=O)(=O)N1CCC(c2cc3cc(C(=O)N4CCC(N5C(=O)OCc6ccccc65)CC4)ccc3o2)CC1	9	79.4	69	
O=C(c1ccc2[nH]ccc2c1)N1CCC(N2C(=O)OCc3ccccc32)CC1		200		
CN(CCn1cnc2cc(C(=O)N3CCC(N4C(=O)OCc5ccccc54)CC3)ccc21)S(C)(=O)=O		398		
Cc1cc(C(=O)N2CCC(N3C(=O)OCc4ccccc43)CC2)cc2ccn(C[C@H]3CCCN3S(C)(=O)=O)c12		10		
CS(=O)(=O)NCCn1ccc2cc(C(=O)N3CCC(N4C(=O)OCc5ccccc54)CC3)ccc21		316		
CC(=O)N1CCC(c2cc3cc(C(=O)N4CCC(N5C(=O)OCc6ccccc65)CC4)ccc3o2)CC1	6	63.1	49	
O=C(c1ccc2cc[nH]c2c1)N1CCC(N2C(=O)OCc3ccccc32)CC1		200		
CC(=O)NCCc1cc2cc(C(=O)N3CCC(N4C(=O)OCc5ccccc54)CC3)ccc2o1	9	39.8	27	
CN(Cc1cc2cc(C(=O)N3CCC(N4C(=O)OCc5ccccc54)CC3)ccc2o1)C(=O)CN1C(=O)CNC1=O	15	25.1	12	
CN1CCC(=O)N(CC(=O)NCc2cc3cc(C(=O)N4CCC(N5C(=O)OCc6ccccc65)CC4)ccc3o2)C1=O	27	3.98		
O=C(c1ccc2[nH]ccc2n1)N1CCC(N2C(=O)OCc3ccccc32)CC1		794		
CC(=O)N1CCN(Cc2cc3cc(C(=O)N4CCC(N5C(=O)OCc6ccccc65)CC4)ccc3o2)CC1	11	79.4	44	
Cc1nc(-c2cccs2)ncc1C(=O)N1CCC(N2C(=O)OCc3ccccc32)CC1		158		
CS(=O)(=O)N1CCC[C@@H]1Cn1ccc2cc(C(=O)N3CCC(N4C(=O)OCc5ccccc54)CC3)ccc21		20		
O=C(c1ccc2ncsc2c1)N1CCC(N2C(=O)OCc3ccccc32)CC1		794		
COc1cc(OC2CCN(C(C)=O)CC2)ccc1C(=O)N1CCC(N2C(=O)OCc3ccccc32)CC1		10		
